Reference: patent US8030298B2, “17β-HSD1 and STS inhibitors” (Abbott Products GmbH, priority 2005, dated 2011)

Molecular target: T1, recombinant human 17β-hydroxysteroid dehydrogenase type 1 (Homo sapiens, UniProt P14061)
T1 construct: made in house; host or cells: Sf9 insect cells (baculovirus, Bac to Bac Expression System)
T1 sequence (P14061 1-328): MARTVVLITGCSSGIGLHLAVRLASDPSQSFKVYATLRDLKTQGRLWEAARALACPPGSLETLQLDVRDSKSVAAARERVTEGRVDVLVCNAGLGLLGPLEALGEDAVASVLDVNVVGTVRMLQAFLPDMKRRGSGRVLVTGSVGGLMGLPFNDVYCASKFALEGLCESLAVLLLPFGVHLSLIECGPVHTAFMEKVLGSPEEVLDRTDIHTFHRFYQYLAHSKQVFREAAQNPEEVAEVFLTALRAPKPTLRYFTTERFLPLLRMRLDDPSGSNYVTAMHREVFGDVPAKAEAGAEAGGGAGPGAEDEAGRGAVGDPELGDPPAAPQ
Assay: Inhibition of recombinant human 17β-hydroxysteroid dehydrogenase type 1 (3H-estrone to estradiol conversion, HPLC)
Format: biochemical
Settings: read-out: Inhibition of rec. 17β-HSD1 (% inhibition); for inhibition at 0.1 µM: inhibitor concentration 100 nM; for inhibition at 1 µM: 0.5 h, inhibitor concentration 1 μm
Method: 17β-HSD1 purification: Recombinant baculovirus was generated by the “Bac to Bac Expression System” (Invitrogen). Recombinant bacmid was transfected to Sf9 insect cells using “Cellfectin Reagent” (Invitrogen). 60 h later cells were harvested; the microsomal fraction was isolated as described by Puranen et al. (1994). Aliquots were stored frozen until determination of enzymatic activity.
Assay—Inhibition of recombinant human 17β-hydroxysteroid dehydrogenase type 1: Recombinant protein (0.1 μg/ml) was incubated in 20 mM KH2PO4 pH 7.4 with 30 nM 3H-estrone and 1 mM NADPH for 30 min at RT, in the presence of potential inhibitors at concentrations of 1 μM or 0.1 μM. Inhibitor stock solutions were prepared in DMSO. Final concentration of DMSO was adjusted to 1% in all samples. The enzyme reaction was stopped by addition of 10% trichloroacetic acid (final concentration). Samples were centrifuged in a microtiter plate at 4000 rpm for 10 min. Supernatants were applied to reverse phase HPLC on a Waters Symmetry C18 column, equipped with a Waters Sentry Guard column. Isocratic HPLC runs were performed at RT at a flow rate of 1 ml/min of acetonitrile:water 48:52 as running solvent. Radioactivity was monitored in the eluate by a Packard Flow Scintillation Analyzer. Total radioactivity for estrone and estradiol were determined in each sample and percent conversion of estrone to estradiol was calculated according to the following formula:
Percent inhibition was calculated as follows: % inhibition=100−% conversion

SMILES | inhibition at 0.1 µM [%] | inhibition at 1 µM [%]
C[C@]12CC[C@@H]3c4ccc(OCc5ccccc5)cc4CC[C@H]3[C@@H]1[C@H](C/C=C/C(=O)N1CCOCC1)c1cnoc12 [161′] | 21 | –
CCCc1cc2c(cc1O)CC[C@H]1[C@@H]3[C@H](CCCC(=O)NCc4ccc5c(c4)OCO5)CC(=O)[C@@]3(C)CC[C@H]21 [Compound 30] | 39.8 | –
CCCc1cc2c(cc1O)CC[C@H]1[C@@H]3[C@H](CCCC(=O)NCc4cccnc4)CC(=O)[C@@]3(C)CC[C@H]21 [Compound 32] | 50 | –
CCCc1cc2c(cc1O)CC[C@H]1[C@@H]3[C@H](CCCC(=O)NCCc4c[nH]c5c(C)cccc45)CC(=O)[C@@]3(C)CC[C@H]21 [Compound 34] | 68.8 | –
CCCc1cc2c(cc1O)CC[C@H]1[C@@H]3[C@H](CCCC(=O)N4CCCCC4)CC(=O)[C@@]3(C)CC[C@H]21 [Compound 36] | 56.9 | –
CCCc1cc2c(cc1O)CC[C@H]1[C@@H]3[C@H](CCCC(=O)N(C)Cc4ccccc4)CC(=O)[C@@]3(C)CC[C@H]21 [Compound 37] | 64 | –
CCCc1cc2c(cc1O)CC[C@H]1[C@@H]3[C@H](CCCC(=O)N(C)CCc4ccc(OC)c(OC)c4)CC(=O)[C@@]3(C)CC[C@H]21 [Compound 38] | 51 | –
CCCc1cc2c(cc1O)CC[C@H]1[C@@H]3[C@H](CCCC(=O)Nc4ccc5cn[nH]c5c4)CC(=O)[C@@]3(C)CC[C@H]21 [Compound 40] | 72 | –
CCCc1cc2c(cc1O)CC[C@H]1[C@@H]3[C@H](CCCC(=O)NCCOC)CC(=O)[C@@]3(C)CC[C@H]21 [Compound 41] | 25.9 | –
CCCc1cc2c(cc1O)CC[C@H]1[C@@H]3[C@H](CCCC(=O)NCc4ccc(F)cc4F)CC(=O)[C@@]3(C)CC[C@H]21 [Compound 42] | 53.3 | –
CCOc1cc2c(cc1O)CC[C@H]1[C@@H]3[C@@H](CCCC(=O)NC4CCCCC4)CC(=O)[C@@]3(C)CC[C@H]21 [Compound 44] | 55.5 | –
CCOc1cc2c(cc1O)CC[C@H]1[C@@H]3[C@@H](CCCC(=O)NCc4ccc5c(c4)OCO5)CC(=O)[C@@]3(C)CC[C@H]21 [Compound 45] | 54 | –
CCOc1cc2c(cc1O)CC[C@H]1[C@@H]3[C@@H](CCCC(=O)NCCc4c[nH]c5c(C)cccc45)CC(=O)[C@@]3(C)CC[C@H]21 [Compound 52] | 50 | 72.2
CCOc1cc2c(cc1O)CC[C@H]1[C@@H]3[C@@H](CCCC(=O)N4CCCCC4)CC(=O)[C@@]3(C)CC[C@H]21 [Compound 55] | 42.6 | 71.9
CCOc1cc2c(cc1O)CC[C@H]1[C@@H]3[C@@H](CCCC(=O)Nc4ccc5cn[nH]c5c4)CC(=O)[C@@]3(C)CC[C@H]21 [Compound 59] | 56.1 | 69.7
COc1cc2c(cc1O)CC[C@H]1[C@@H]3[C@@H](CCCC(=O)NC4CCCCC4)CC(=O)[C@@]3(C)CC[C@H]21 [Compound 67] | 42.5 | 73.2
COc1cc2c(cc1O)CC[C@H]1[C@@H]3[C@@H](CCCC(=O)NCc4ccccc4)CC(=O)[C@@]3(C)CC[C@H]21 [Compound 71] | 45.8 | 70.6
COc1cc2c(cc1O)CC[C@H]1[C@@H]3[C@@H](CCCC(=O)N4CCCCC4)CC(=O)[C@H]3CC[C@H]21 [Compound 78] | 40.6 | 72
COc1cc2c(cc1O)CC[C@H]1[C@@H]3[C@@H](CCCC(=O)Nc4ccc5cn[nH]c5c4)CC(=O)[C@@]3(C)CC[C@H]21 [Compound 83] | 53.9 | 71.6
C[C@]12CC[C@@H]3c4ccc(O)cc4CC[C@H]3[C@@H]1[C@@H](CCCC(=O)NC1CCCCC1)CC2(F)F [Compound 102] | 41.6 | 70.6

SMILES | inhibition at 0.1 µM [%] | inhibition at 1 µM [%]
C[C@]12CC[C@@H]3c4ccc(O)cc4CC[C@H]3[C@@H]1[C@@H](CCCC(=O)NCc1ccccc1)CC2(F)F [Compound 106] | 36.7 | 68
C[C@]12CC[C@@H]3c4ccc(O)cc4CC[C@H]3[C@@H]1[C@@H](CCCC(=O)NCc1ccc(O)c(O)c1)CC2(F)F [Compound 109] | 35.1 | 70.7
Cc1cccc2c(CCNC(=O)CCC[C@H]3CC(F)(F)[C@@]4(C)CC[C@@H]5c6ccc(O)cc6CC[C@H]5[C@H]34)c[nH]c12 [Compound 111] | 50.6 | 68.3
C[C@]12CC[C@@H]3c4ccc(O)cc4CC[C@H]3[C@@H]1[C@@H](CCCC(=O)N1CCCCC1)CC2(F)F [Compound 113] | 47.2 | 76.9
COc1ccc(CCN(C)C(=O)CCC[C@H]2CC(F)(F)[C@@]3(C)CC[C@@H]4c5ccc(O)cc5CC[C@H]4[C@H]23)cc1OC [Compound 116] | 49.3 | –
C[C@]12CC[C@@H]3c4ccc(O)cc4CC[C@H]3[C@@H]1[C@H](CCC(=O)NC1CC1)CC2(F)F [Compound 120] | 37.3 | –
C[C@]12CC[C@@H]3c4ccc(O)cc4CC[C@H]3[C@@H]1[C@H](CCC(=O)NC1CCCCC1)CC2(F)F [Compound 121] | 63.6 | –
C[C@]12CC[C@@H]3c4ccc(O)cc4CC[C@H]3[C@@H]1[C@H](CCC(=O)NCc1ccc3c(c1)OCO3)CC2(F)F [Compound 122] | 34 | –
C[C@]12CC[C@@H]3c4ccc(O)cc4CC[C@H]3[C@@H]1[C@H](CCC(=O)NCc1ccccc1)CC2(F)F [Compound 125] | 29.2 | –
C[C@]12CC[C@@H]3c4ccc(O)cc4CC[C@H]3[C@@H]1[C@H](CCC(=O)NCc1ccc(O)c(O)c1)CC2(F)F [Compound 127] | 21.1 | –
COc1cc(CNC(=O)CC[C@@H]2CC(F)(F)[C@@]3(C)CC[C@@H]4c5ccc(O)cc5CC[C@H]4[C@H]23)cc(OC)c1 [Compound 128] | 21.2 | –
Cc1cccc2c(CCNC(=O)CC[C@@H]3CC(F)(F)[C@@]4(C)CC[C@@H]5c6ccc(O)cc6CC[C@H]5[C@H]34)c[nH]c12 [Compound 129] | 33.1 | –
C[C@]12CC[C@@H]3c4ccc(O)cc4CC[C@H]3[C@@H]1[C@H](CCC(=O)N1CCCCC1)CC2(F)F [Compound 131] | 19.8 | –
CCN(CC)C(=O)CC[C@@H]1CC(F)(F)[C@@]2(C)CC[C@@H]3c4ccc(O)cc4CC[C@H]3[C@H]12 [Compound 133] | 71.4 | –
COc1ccc(CCN(C)C(=O)CC[C@@H]2CC(F)(F)[C@@]3(C)CC[C@@H]4c5ccc(O)cc5CC[C@H]4[C@H]23)cc1OC [Compound 134] | 50.5 | –
CCCc1cc2c(cc1O)CC[C@H]1[C@@H]3[C@H](CCCC(=O)NCc4ccccc4)CC(=O)[C@@]3(C)CC[C@H]21 [Example 2, N-Benzyl-4-(3-hydroxy-17-oxo-2-propyl-estra-1,3,5(10)-trien-15β-yl)-butyramide] | 54.8 | –
COCCc1cc2c(cc1O)CC[C@H]1[C@@H]3[C@H](CCCC(=O)NCc4ccccc4)CC(=O)[C@@]3(C)CC[C@H]21 [Example 3, N-Benzyl-4-(3-hydroxy-2-(2-methoxy-ethyl)-17-oxo-estra-1,3,5(10)-trien-15β-yl)-butyramide] | 19.6 | –
CCCc1cc2c(cc1O)CC[C@H]1[C@@H]3[C@H](CCCC(=O)N4CCOCC4)CC(=O)[C@@]3(C)CC[C@H]21 [Example 6, 3-Hydroxy-15β-(4-morpholin-4-yl-4-oxo-butyl)-2-propyl-estra-1,3,5(10)-trien-17-one] | 37.9 | –
C[C@]12CC[C@@H]3c4ccc(O)cc4CC[C@H]3[C@@H]1[C@H](CCCC(=O)N1CCOCC1)CC2(F)F [Example 90] | 63.5 | –
C[C@]12CC[C@@H]3c4ccc(O)cc4CC[C@H]3[C@@H]1[C@@H](CCCC(=O)N1CCOCC1)CC2(F)F [Example 91, 4-(17,17-Difluoro-3-hydroxy-estra-1,3,5(10)-trien-15α-yl)-1-morpholin-4-yl-butan-1-one] | 32 | –
